In brackets after ≈: the same amount, converted by molar mass.
Columns and labels:
Assay type in all cases: cell-based
[1] = tested on: Staphylococcus aureus X400; assay: standard agar-dilution assay (MIC); conditions: Staphylococcus aureus X400, methicillin-resistant strain, unit assumed
Protocol: (§1) The MIC's in Table II were determined by standard agar-dilution assays. The MIC's in Table III were obtained using a conventional broth-dilution microtiter test.
^c Methicillinresistant-strain

[2] = tested on: Streptococcus pneumoniae Park I; conditions: agar dilution, unit assumed
Protocol: as §1

[3] = tested on: Staphylococcus aureus V41; assay: standard agar-dilution assay (MIC); conditions: Staphylococcus aureus V41, penicillin-resistant strain, unit assumed
Protocol: as §1
^b Penicillinresistant strain

[4] = tested on: Pasteurella multocida 60A; assay: conventional broth-dilution microtiter test (MIC); conditions: avian isolate, unit assumed
Protocol: as §1

Mycoplasma hyorhinis = assay: conventional broth-dilution microtiter test (MIC); conditions: unit assumed
Protocol: as §1

Mycoplasma gallisepticum = assay: conventional broth-dilution microtiter test (MIC); conditions: unit assumed
Protocol: as §1

[5] = tested on: Pasteurella multocida 17E; assay: conventional broth-dilution microtiter test (MIC); conditions: bovine isolate, unit assumed
Protocol: as §1

Mycoplasma synoviae = assay: conventional broth-dilution microtiter test (MIC); conditions: unit assumed
Protocol: as §1

Streptococcus sp. 80 = assay: conventional broth-dilution microtiter test (MIC); conditions: unit assumed
Protocol: as §1

Staphylococcus aureus = assay: conventional broth-dilution microtiter test (MIC); conditions: unit assumed
Protocol: as §1

[6] = tested on: Staphylococcus epidermidis EPI2; assay: standard agar-dilution assay (MIC); conditions: unit assumed
Protocol: as §1

[7] = tested on: Staphylococcus aureus S13E; assay: standard agar-dilution assay (MIC); conditions: unit assumed
Protocol: as §1

[8] = tested on: Haemophilus influenzae Holt; assay: standard agar-dilution assay (MIC); conditions: ampicillin-sensitive strain, unit assumed
Protocol: as §1

Streptococcus Group 9960 = assay: standard agar-dilution assay (MIC); conditions: unit assumed
Protocol: as §1

[9] = tested on: Staphylococcus aureus X1.1; assay: standard agar-dilution assay (MIC); conditions: unit assumed
Protocol: as §1

[10] = tested on: Streptococcus pyogenes C203; assay: standard agar-dilution assay (MIC); conditions: unit assumed
Protocol: as §1

[11] = tested on: Staphylococcus epidermidis EPI1; assay: standard agar-dilution assay (MIC); conditions: unit assumed
Protocol: as §1

[12] = tested on: Streptococcus Group D X66; assay: standard agar-dilution assay (MIC); conditions: unit assumed
Protocol: as §1

[13] = tested on: Haemophilus influenzae R252; assay: standard agar-dilution assay (MIC); conditions: Haemophilus influenzae R252, ampicillin-resistant strain, unit assumed
Protocol: as §1

Row | Structure (SMILES) | MIC [1] [µg/mL] | MIC [2] [µg/mL] | MIC [3] [µg/mL] | MIC [4] [µg/mL] | MIC (Mycoplasma hyorhinis) [µg/mL] | MIC (Mycoplasma gallisepticum) [µg/mL] | MIC [5] [µg/mL] | MIC (Mycoplasma synoviae) [µg/mL] | MIC (Streptococcus sp. 80) [µg/mL] | MIC (Staphylococcus aureus) [µg/mL] | MIC [6] [µg/mL] | MIC [7] [µg/mL] | MIC [8] [µg/mL] | MIC (Streptococcus Group 9960) [µg/mL] | MIC [9] [µg/mL] | MIC [10] [µg/mL] | MIC [11] [µg/mL] | MIC [12] [µg/mL] | MIC [13] [µg/mL]
1 | CCC1OC(=O)CC(O)C(C)C(OC2OC(C)C(OC3CC(C)(O)C(O)C(C)O3)C(N(C)C)C2O)C(CC=O)CC(C)C(=O)C=CC(C)=CC1COC(=O)NCCCO (centres unmarked) [Compound 26] | 4 (≈ 4.74 µM) | 0.125 (≈ 0.148 µM) | 2 (≈ 2.37 µM) | 12.5 (≈ 14.8 µM) | 6.25 (≈ 7.41 µM) | 0.78 (≈ 0.925 µM) | 6.25 (≈ 7.41 µM) | 0.39 (≈ 0.463 µM) | 0.39 (≈ 0.463 µM) | 1.56 (≈ 1.85 µM) | 2 (≈ 2.37 µM) | 4 (≈ 4.74 µM) | 16 (≈ 19 µM) | 2 (≈ 2.37 µM) | 1 (≈ 1.19 µM) | 0.25 (≈ 0.297 µM) | 1 (≈ 1.19 µM) | 2 (≈ 2.37 µM) | 
2 | CCC1OC(=O)CC(O)C(C)C(OC2OC(C)C(OC3CC(C)(O)C(O)C(C)O3)C(N(C)C)C2OC(C)=O)C(CC=O)CC(C)C(=O)C=CC(C)=CC1COC(=O)C=Cc1ccccc1 (centres unmarked) [Compound 11] | 2 (≈ 2.19 µM) | 0.25 (≈ 0.273 µM) | 0.5 (≈ 0.547 µM) | > 50 | 6.25 (≈ 6.84 µM) | 0.39 (≈ 0.427 µM) | 12.5 (≈ 13.7 µM) | 3.12 (≈ 3.41 µM) | 0.78 (≈ 0.853 µM) | 1.56 (≈ 1.71 µM) | 4 (≈ 4.38 µM) | 1 (≈ 1.09 µM) | 128 (≈ 140 µM) | 2 (≈ 2.19 µM) | 1 (≈ 1.09 µM) | 1 (≈ 1.09 µM) | 1 (≈ 1.09 µM) | 2 (≈ 2.19 µM) | 128 (≈ 140 µM)
3 | CCC1OC(=O)CC(O)C(C)C(OC2OC(C)C(OC3CC(C)(O)C(O)C(C)O3)C(N(C)C)C2OC(C)=O)C(CC=O)CC(C)C(=O)C=CC(C)=CC1COC(=O)OC (centres unmarked) [Compound 24] | 0.5 (≈ 0.594 µM) | 0.06 (≈ 0.0713 µM) | 0.5 (≈ 0.594 µM) | 12.5 (≈ 14.8 µM) | 1.56 (≈ 1.85 µM) | 0.78 (≈ 0.926 µM) | 6.25 (≈ 7.42 µM) | 0.78 (≈ 0.926 µM) | 0.78 (≈ 0.926 µM) | 3.12 (≈ 3.71 µM) | 0.5 (≈ 0.594 µM) | 0.5 (≈ 0.594 µM) | 16 (≈ 19 µM) | 0.5 (≈ 0.594 µM) | 0.5 (≈ 0.594 µM) | 0.25 (≈ 0.297 µM) | 0.5 (≈ 0.594 µM) | 0.5 (≈ 0.594 µM) | 8 (≈ 9.5 µM)
4 | CCC1OC(=O)CC(O)C(C)C(OC2OC(C)C(OC3CC(C)(O)C(O)C(C)O3)C(N(C)C)C2OC(C)=O)C(CC=O)CC(C)C(=O)C=CC(C)=CC1COC(=O)Cc1cc(OC)ccc1OC (centres unmarked) [Compound 20] | 0.5 (≈ 0.52 µM) | 0.06 (≈ 0.0624 µM) | 0.5 (≈ 0.52 µM) | 25 (≈ 26 µM) | 1.56 (≈ 1.62 µM) | 0.195 (≈ 0.203 µM) | 12.5 (≈ 13 µM) | 0.39 (≈ 0.405 µM) | 0.195 (≈ 0.203 µM) | 0.78 (≈ 0.811 µM) | 0.5 (≈ 0.52 µM) | 0.5 (≈ 0.52 µM) | 32 (≈ 33.3 µM) | 2 (≈ 2.08 µM) | 0.5 (≈ 0.52 µM) | 0.25 (≈ 0.26 µM) | 0.5 (≈ 0.52 µM) | 0.5 (≈ 0.52 µM) | 16 (≈ 16.6 µM)
5 | CCC1OC(=O)CC(O)C(C)C(OC2OC(C)C(OC3CC(C)(O)C(O)C(C)O3)C(N(C)C)C2O)C(CC=O)CC(C)C(=O)C=CC(C)=CC1COC(=O)N1CCC(O)CC1 (centres unmarked) [Compound 28] | 2 (≈ 2.3 µM) | 0.125 (≈ 0.144 µM) | 1 (≈ 1.15 µM) | 25 (≈ 28.8 µM) | 0.78 (≈ 0.898 µM) | 0.39 (≈ 0.449 µM) | 12.5 (≈ 14.4 µM) | 0.78 (≈ 0.898 µM) | 0.39 (≈ 0.449 µM) | 1.56 (≈ 1.8 µM) | 2 (≈ 2.3 µM) | 2 (≈ 2.3 µM) | 8 (≈ 9.21 µM) | 1 (≈ 1.15 µM) | 1 (≈ 1.15 µM) | 0.25 (≈ 0.288 µM) | 0.5 (≈ 0.575 µM) | 1 (≈ 1.15 µM) | 16 (≈ 18.4 µM)
6 | CCC1OC(=O)CC(O)C(C)C(OC2OC(C)C(OC3CC(C)(O)C(O)C(C)O3)C(N(C)C)C2OC(C)=O)C(CC=O)CC(C)C(=O)C=CC(C)=CC1COC(=O)n1ccnc1 (centres unmarked) [Compound 21] | 2 (≈ 2.28 µM) | 0.125 (≈ 0.142 µM) | 2 (≈ 2.28 µM) | 12.5 (≈ 14.2 µM) | 1.56 (≈ 1.78 µM) | 0.78 (≈ 0.888 µM) | 12.5 (≈ 14.2 µM) | 0.78 (≈ 0.888 µM) | 0.78 (≈ 0.888 µM) | 6.25 (≈ 7.12 µM) | 2 (≈ 2.28 µM) | 1 (≈ 1.14 µM) | 16 (≈ 18.2 µM) | 1 (≈ 1.14 µM) | 1 (≈ 1.14 µM) | 0.5 (≈ 0.569 µM) | 2 (≈ 2.28 µM) | 2 (≈ 2.28 µM) | 8 (≈ 9.11 µM)
7 | CCC1OC(=O)CC(O)C(C)C(OC2OC(C)C(OC3CC(C)(O)C(O)C(C)O3)C(N(C)C)C2OC(C)=O)C(CC=O)CC(C)C(=O)C=CC(C)=CC1COC(=O)CCCCc1ccccc1 (centres unmarked) [Compound 18] | 2 (≈ 2.12 µM) | 0.125 (≈ 0.132 µM) | 2 (≈ 2.12 µM) | > 50 | 12.5 (≈ 13.2 µM) | < 0.05 | 50 (≈ 53 µM) | 6.25 (≈ 6.62 µM) | 0.78 (≈ 0.826 µM) | 1.56 (≈ 1.65 µM) | 2 (≈ 2.12 µM) | 1 (≈ 1.06 µM) | > 128 | 1 (≈ 1.06 µM) | 1 (≈ 1.06 µM) | 0.5 (≈ 0.53 µM) | 1 (≈ 1.06 µM) | 2 (≈ 2.12 µM) | > 128
8 | CCC(=O)OCC1C=C(C)C=CC(=O)C(C)CC(CC=O)C(OC2OC(C)C(OC3CC(C)(O)C(O)C(C)O3)C(N(C)C)C2OC(C)=O)C(C)C(O)CC(=O)OC1CC (centres unmarked) [Compound 5, 2'-O-Acetyl-23-O-propionyl DMT] | 1 (≈ 1.19 µM) | 0.5 (≈ 0.595 µM) | 0.5 (≈ 0.595 µM) | 12.5 (≈ 14.9 µM) | 1.56 (≈ 1.86 µM) | ≤ 0.024 | 6.25 (≈ 7.44 µM) | 0.097 (≈ 0.115 µM) | ≤ 0.78 |  | 1 (≈ 1.19 µM) | 1 (≈ 1.19 µM) | 16 (≈ 19 µM) | 1 (≈ 1.19 µM) | 0.5 (≈ 0.595 µM) | 0.5 (≈ 0.595 µM) | 1 (≈ 1.19 µM) | 1 (≈ 1.19 µM) | 32 (≈ 38.1 µM)
9 | CCCCCCCC(=O)OCC1C=C(C)C=CC(=O)C(C)CC(CC=O)C(OC2OC(C)C(OC3CC(C)(O)C(O)C(C)O3)C(N(C)C)C2OC(C)=O)C(C)C(O)CC(=O)OC1CC (centres unmarked) [Compound 7] | 4 (≈ 4.39 µM) | 0.5 (≈ 0.549 µM) | 2 (≈ 2.2 µM) | > 50 | 6.25 (≈ 6.87 µM) | 1.56 (≈ 1.71 µM) | > 50 | 12.5 (≈ 13.7 µM) | 1.56 (≈ 1.71 µM) | 1.56 (≈ 1.71 µM) | 4 (≈ 4.39 µM) | 2 (≈ 2.2 µM) |  | 2 (≈ 2.2 µM) | 2 (≈ 2.2 µM) | 0.5 (≈ 0.549 µM) | 2 (≈ 2.2 µM) | 2 (≈ 2.2 µM) | 
